Experimental data taken from ChEMBL document CHEMBL1145498, “A systematic interaction map of validated kinase inhibitors with Ser/Thr kinases” (Proc Natl Acad Sci U S A, 2007).

How the values were obtained:
[1] = molecular target: Serine/threonine-protein kinase 26 (Homo sapiens) (UniProt Q9P289)
[2] = molecular target: Mitogen-activated protein kinase 6 (Homo sapiens) (UniProt Q16659)
[3] = molecular target: Serine/threonine-protein kinase 16 (Homo sapiens) (UniProt O75716)
[4] = molecular target: T1, Calcium/calmodulin-dependent protein kinase type IV (Homo sapiens) (UniProt Q16566)
T1 sequence (whole entry): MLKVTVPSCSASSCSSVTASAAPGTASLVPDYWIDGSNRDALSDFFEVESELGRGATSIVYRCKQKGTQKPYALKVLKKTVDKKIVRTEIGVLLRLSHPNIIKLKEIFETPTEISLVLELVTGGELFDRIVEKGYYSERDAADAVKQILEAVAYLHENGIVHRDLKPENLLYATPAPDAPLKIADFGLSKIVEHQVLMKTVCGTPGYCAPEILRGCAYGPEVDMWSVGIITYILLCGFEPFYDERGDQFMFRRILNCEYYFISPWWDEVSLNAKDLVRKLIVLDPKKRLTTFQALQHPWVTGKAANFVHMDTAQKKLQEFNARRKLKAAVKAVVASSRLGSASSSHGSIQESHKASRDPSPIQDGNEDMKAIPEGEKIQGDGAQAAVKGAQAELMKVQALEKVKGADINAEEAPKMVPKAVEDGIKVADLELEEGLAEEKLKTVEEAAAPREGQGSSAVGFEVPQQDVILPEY

[5] = molecular target: Serine/threonine-protein kinase pim-2 (Homo sapiens, UniProt Q9P1W9)
Serine/threonine-protein kinase pim-2, sequence (Q9P1W9 whole entry, looked up): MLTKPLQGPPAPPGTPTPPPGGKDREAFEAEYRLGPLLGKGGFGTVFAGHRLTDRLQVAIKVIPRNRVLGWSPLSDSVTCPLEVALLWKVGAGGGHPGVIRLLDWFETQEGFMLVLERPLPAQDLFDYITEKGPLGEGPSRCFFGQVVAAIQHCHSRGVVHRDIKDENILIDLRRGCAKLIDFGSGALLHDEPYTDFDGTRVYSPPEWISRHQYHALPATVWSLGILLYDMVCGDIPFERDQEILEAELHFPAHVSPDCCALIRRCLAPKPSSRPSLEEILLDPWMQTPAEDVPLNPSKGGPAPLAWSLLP

[6] = molecular target: Dual specificity protein kinase CLK1 (Homo sapiens) (UniProt P49759)
Dual specificity protein kinase CLK1 (Homo sapiens), sequence (P49759 whole entry, looked up): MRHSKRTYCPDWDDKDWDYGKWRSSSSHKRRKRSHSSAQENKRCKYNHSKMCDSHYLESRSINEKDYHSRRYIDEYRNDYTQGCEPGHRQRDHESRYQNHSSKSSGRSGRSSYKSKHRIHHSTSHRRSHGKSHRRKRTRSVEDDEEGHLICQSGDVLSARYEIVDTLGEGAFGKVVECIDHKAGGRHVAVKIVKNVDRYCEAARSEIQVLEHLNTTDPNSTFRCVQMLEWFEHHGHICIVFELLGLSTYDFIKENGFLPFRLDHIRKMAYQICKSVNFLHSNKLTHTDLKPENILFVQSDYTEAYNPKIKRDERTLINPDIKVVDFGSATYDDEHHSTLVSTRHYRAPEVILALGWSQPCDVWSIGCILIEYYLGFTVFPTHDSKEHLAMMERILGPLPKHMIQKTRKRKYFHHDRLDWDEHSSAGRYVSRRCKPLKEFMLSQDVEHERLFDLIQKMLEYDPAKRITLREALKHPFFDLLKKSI

[7] = molecular target: Dual specificity protein kinase CLK3 (Homo sapiens) (UniProt P49761)
Dual specificity protein kinase CLK3 (Homo sapiens), sequence (P49761 whole entry, looked up): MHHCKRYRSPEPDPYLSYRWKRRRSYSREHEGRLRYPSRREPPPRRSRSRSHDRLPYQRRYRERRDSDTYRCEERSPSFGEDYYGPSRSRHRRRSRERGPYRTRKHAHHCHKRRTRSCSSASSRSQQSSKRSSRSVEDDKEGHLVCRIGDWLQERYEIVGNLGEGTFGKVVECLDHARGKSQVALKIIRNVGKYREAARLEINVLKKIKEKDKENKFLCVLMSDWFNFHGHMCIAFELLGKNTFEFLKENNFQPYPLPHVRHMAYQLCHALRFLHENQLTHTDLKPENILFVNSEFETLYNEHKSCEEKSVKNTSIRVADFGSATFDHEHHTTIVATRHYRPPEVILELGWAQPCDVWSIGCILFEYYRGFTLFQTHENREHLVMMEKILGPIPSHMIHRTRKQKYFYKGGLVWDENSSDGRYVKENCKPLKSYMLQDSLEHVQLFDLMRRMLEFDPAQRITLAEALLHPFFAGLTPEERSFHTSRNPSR

[8] = molecular target: T2, Serine/threonine-protein kinase VRK3 (Homo sapiens) (UniProt Q8IV63)
T2 sequence (whole entry): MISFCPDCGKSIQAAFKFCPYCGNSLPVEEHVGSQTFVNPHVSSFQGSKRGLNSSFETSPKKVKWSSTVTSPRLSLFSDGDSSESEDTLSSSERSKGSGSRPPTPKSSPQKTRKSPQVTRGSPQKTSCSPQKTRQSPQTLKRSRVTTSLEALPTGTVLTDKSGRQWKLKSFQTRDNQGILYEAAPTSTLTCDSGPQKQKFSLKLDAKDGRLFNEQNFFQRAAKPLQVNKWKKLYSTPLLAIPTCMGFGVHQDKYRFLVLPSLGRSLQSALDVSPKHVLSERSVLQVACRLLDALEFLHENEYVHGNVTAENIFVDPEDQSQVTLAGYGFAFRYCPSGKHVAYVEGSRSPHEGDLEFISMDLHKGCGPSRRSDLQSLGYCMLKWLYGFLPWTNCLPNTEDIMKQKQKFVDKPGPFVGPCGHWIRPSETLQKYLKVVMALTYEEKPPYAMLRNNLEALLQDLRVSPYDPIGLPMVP

[9] = molecular target: Serine/threonine-protein kinase PAK 4 (Homo sapiens) (UniProt O96013)
[10] = molecular target: Serine/threonine-protein kinase 38 (Homo sapiens) (UniProt Q15208)
Serine/threonine-protein kinase 38 (Homo sapiens), sequence (Q15208 2-465 limits assumed): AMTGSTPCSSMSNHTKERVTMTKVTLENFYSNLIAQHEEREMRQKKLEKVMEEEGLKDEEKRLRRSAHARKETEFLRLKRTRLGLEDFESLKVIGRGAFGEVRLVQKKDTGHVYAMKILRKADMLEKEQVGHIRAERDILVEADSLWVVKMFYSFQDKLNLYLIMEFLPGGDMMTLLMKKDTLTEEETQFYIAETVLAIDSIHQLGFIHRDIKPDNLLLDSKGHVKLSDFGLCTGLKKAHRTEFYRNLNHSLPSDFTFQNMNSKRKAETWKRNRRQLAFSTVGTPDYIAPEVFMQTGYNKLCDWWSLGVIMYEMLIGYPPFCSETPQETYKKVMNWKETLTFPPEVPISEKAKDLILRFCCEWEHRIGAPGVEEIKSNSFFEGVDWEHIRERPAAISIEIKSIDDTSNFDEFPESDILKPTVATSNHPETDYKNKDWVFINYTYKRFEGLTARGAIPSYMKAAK

[11] = molecular target: Ribosomal protein S6 kinase alpha-3 (Homo sapiens) (UniProt P51812)
Ribosomal protein S6 kinase alpha-3 (Homo sapiens), sequence (P51812 whole entry): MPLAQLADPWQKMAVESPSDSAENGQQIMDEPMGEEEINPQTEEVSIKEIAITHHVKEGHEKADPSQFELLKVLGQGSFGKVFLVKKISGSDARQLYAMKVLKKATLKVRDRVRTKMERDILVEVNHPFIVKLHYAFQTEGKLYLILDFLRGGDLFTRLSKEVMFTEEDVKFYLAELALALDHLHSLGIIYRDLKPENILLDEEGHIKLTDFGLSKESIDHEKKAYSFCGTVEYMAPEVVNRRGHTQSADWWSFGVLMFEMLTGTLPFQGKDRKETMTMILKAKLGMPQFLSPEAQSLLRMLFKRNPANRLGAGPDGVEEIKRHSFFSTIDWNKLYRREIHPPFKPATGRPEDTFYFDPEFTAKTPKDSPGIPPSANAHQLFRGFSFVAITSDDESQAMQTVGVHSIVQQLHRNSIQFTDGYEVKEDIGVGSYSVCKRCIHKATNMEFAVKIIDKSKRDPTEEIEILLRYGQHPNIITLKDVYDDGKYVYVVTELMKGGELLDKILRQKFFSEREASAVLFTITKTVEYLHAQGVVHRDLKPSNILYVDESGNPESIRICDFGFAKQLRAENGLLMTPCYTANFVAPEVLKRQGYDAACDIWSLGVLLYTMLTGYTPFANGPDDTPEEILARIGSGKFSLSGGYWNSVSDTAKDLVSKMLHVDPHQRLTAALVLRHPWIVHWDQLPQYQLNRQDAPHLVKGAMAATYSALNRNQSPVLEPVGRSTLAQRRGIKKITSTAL

[12] = molecular target: T3, Serine/threonine-protein kinase PLK4 (Homo sapiens) (UniProt O00444)
T3 sequence (whole entry): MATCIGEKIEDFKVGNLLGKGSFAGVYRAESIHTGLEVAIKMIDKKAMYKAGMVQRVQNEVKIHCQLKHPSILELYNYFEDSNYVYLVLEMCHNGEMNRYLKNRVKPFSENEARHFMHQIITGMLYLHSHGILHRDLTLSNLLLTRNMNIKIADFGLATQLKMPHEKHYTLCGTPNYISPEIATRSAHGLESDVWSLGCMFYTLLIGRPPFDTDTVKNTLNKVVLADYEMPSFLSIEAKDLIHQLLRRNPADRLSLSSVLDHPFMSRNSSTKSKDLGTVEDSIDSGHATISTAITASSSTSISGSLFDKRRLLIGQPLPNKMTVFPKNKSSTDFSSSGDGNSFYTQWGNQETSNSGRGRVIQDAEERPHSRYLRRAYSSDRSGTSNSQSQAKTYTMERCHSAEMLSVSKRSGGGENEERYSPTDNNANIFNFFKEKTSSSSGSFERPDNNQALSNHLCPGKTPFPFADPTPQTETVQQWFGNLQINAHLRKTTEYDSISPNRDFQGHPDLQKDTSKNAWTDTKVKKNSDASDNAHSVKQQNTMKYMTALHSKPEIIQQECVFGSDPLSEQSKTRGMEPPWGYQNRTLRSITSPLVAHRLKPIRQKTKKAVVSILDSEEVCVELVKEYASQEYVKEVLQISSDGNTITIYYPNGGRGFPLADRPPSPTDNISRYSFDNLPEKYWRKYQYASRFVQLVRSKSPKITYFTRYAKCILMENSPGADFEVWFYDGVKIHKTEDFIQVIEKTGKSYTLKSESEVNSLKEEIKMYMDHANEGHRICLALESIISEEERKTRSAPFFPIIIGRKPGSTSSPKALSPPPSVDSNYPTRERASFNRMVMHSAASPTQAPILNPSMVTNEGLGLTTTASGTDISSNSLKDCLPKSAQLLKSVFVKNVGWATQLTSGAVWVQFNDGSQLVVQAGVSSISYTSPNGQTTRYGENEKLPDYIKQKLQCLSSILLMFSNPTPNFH

[13] = molecular target: Calcium/calmodulin-dependent protein kinase type II subunit beta (Homo sapiens) (UniProt Q13554)
[14] = molecular target: Cyclin-dependent kinase 6 (Homo sapiens) (UniProt Q00534)
Cyclin-dependent kinase 6 (Homo sapiens), sequence (Q00534 whole entry): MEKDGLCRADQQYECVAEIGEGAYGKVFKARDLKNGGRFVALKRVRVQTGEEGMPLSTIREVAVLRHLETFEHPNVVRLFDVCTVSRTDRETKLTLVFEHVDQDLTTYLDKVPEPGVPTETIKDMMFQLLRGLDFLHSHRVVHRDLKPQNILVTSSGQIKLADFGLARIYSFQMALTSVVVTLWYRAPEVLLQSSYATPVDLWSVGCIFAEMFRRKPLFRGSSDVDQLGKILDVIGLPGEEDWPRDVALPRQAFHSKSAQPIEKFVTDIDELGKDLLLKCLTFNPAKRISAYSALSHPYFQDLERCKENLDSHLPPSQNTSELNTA

[15] = molecular target: Mitogen-activated protein kinase 11 (Homo sapiens, UniProt Q15759)
Mitogen-activated protein kinase 11, sequence (Q15759 whole entry): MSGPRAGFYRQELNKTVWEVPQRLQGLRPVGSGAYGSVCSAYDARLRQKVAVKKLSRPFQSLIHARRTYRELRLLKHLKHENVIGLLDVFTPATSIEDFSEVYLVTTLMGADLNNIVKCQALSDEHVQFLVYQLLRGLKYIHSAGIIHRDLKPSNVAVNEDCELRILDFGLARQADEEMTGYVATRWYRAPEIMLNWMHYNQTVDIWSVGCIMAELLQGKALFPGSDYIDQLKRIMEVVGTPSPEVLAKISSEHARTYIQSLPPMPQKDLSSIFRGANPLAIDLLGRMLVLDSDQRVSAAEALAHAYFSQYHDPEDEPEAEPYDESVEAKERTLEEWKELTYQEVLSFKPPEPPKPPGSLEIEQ

[16] = molecular target: Cyclin-dependent kinase-like 1 (Homo sapiens) (UniProt Q00532)
[17] = molecular target: Casein kinase I isoform gamma-3 (Homo sapiens) (UniProt Q9Y6M4)
Casein kinase I isoform gamma-3 (Homo sapiens), sequence (Q9Y6M4 whole entry, looked up, canonical isoform): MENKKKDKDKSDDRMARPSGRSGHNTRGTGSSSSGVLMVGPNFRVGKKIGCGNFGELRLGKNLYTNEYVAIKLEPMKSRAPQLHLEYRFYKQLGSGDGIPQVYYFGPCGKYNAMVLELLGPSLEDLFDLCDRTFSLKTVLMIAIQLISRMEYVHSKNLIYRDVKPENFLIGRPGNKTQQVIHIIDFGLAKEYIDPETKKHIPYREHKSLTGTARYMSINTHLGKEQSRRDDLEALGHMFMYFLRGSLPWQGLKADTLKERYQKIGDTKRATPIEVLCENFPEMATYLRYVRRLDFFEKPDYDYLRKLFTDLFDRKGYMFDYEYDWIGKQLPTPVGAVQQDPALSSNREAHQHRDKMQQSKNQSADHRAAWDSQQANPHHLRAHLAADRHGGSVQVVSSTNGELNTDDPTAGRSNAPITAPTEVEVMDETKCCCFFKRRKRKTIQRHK

[18] = molecular target: Serine/threonine-protein kinase VRK2 (Homo sapiens) (UniProt Q86Y07)

Mitogen-activated protein kinase 6 (Homo sapiens), sequence (Q16659 whole entry): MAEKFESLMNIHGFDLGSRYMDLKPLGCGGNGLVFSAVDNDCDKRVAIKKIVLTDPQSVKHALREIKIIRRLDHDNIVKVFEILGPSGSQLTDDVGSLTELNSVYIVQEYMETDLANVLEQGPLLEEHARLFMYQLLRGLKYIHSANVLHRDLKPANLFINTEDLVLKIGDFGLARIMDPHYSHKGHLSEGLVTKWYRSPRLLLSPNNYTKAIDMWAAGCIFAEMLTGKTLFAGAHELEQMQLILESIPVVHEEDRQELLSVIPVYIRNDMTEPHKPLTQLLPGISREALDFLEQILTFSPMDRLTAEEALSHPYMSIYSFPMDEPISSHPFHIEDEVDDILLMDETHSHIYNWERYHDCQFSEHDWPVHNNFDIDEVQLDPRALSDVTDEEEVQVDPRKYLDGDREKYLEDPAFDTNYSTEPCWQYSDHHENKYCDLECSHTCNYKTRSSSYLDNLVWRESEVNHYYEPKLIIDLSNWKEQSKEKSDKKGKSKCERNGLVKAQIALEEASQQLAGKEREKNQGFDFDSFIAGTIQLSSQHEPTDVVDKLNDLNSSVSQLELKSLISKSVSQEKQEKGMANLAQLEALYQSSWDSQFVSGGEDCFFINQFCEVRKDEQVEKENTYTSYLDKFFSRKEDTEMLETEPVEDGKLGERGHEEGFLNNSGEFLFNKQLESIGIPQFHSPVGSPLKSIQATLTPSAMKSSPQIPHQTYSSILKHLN
Serine/threonine-protein kinase 16 (Homo sapiens), sequence (O75716 whole entry): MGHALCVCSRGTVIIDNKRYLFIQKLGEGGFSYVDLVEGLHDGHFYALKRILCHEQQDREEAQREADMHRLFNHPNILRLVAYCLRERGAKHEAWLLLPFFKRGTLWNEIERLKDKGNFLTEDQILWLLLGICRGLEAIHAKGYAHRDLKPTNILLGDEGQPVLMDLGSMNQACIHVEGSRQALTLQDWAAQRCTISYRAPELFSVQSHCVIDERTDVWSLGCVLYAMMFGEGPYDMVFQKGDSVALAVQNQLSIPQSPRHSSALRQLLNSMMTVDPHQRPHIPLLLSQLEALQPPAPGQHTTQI

SMILES	ΔTm [1] [°C]	ΔTm [2] [°C]	ΔTm [3] [°C]	ΔTm [4] [°C]	ΔTm [5] [°C]	ΔTm [6] [°C]	ΔTm [7] [°C]	ΔTm [8] [°C]	ΔTm [9] [°C]	ΔTm [10] [°C]	ΔTm [11] [°C]	ΔTm [12] [°C]	ΔTm [13] [°C]	ΔTm [14] [°C]	ΔTm [15] [°C]	ΔTm [16] [°C]	ΔTm [17] [°C]	ΔTm [18] [°C]
COc1cc2ncnc(Nc3cccc(Br)c3)c2cc1OC	1.2	-0.1	0.4	0.1	0.9	1.7	0.2	0.3	0.2	0.4	1.5	3.4	0	0.2	1.8	0.1	-0.1	0.4
O=c1cc(N2CCOCC2)oc2c(-c3ccccc3)cccc12	-0.3	0.6	0.4	1	1.3	1.3	0.1	0.6	0.9	0.6	0	0	0.5	0.5	-0.3	-0.5	0.7	0.6
NC(=O)c1ccc(-c2nc(-c3ccc4c(c3)OCCO4)c(-c3ccccn3)[nH]2)cc1	-1.1	-0.1	0.1	-0.9	-0.2	-0.4	0.1	0.3	0.9	0.5	-0.1	0.1	1	0.4	-0.1	-0.3	0.8	0.5
Oc1cccc(-c2nc(N3CCOCC3)c3oc4ncccc4c3n2)c1	0.2	0.5	0.3	0	0.1	0.6	0	0.2	0.7	0	0.1	0.4	0.1	-0.4	1	-0.3	0.1	0.4
CC(C)n1cnc2c(NCc3ccccc3O)nc(NCCCO)nc21	0.4	0	1.2	0.1	0.1	0.9	0.1	0.1	0.5	0.3	0.9	0.1	0.3	0	0.1	0.1	0.5	0.6
O=Nc1c(-c2c(O)[nH]c3ccccc23)[nH]c2ccccc12	2.5	0.1	5.1	4.5	0	4	2.7	-0.8	1.7	2.7	5.5	8.9	1.6	3.3	0.7	3.8	2.7	3.1
